How the values were obtained:
[1] = target: T1, menin/MLL (terbium chelate-labeled menin, FITC-MBM1 peptide) (Homo sapiens, UniProt O00255, T541A); test: Menin/MLL homogenous time-resolved fluorescence (HTRF) assay; assay type: binding; conditions: 30 min incubation
T1 construct: Menin (a.a 1-610-6xhis tag, 2.3 mg/mL in 20 mM Hepes)
T1 sequence (O00255 with tags, fused parts or gaps T541A): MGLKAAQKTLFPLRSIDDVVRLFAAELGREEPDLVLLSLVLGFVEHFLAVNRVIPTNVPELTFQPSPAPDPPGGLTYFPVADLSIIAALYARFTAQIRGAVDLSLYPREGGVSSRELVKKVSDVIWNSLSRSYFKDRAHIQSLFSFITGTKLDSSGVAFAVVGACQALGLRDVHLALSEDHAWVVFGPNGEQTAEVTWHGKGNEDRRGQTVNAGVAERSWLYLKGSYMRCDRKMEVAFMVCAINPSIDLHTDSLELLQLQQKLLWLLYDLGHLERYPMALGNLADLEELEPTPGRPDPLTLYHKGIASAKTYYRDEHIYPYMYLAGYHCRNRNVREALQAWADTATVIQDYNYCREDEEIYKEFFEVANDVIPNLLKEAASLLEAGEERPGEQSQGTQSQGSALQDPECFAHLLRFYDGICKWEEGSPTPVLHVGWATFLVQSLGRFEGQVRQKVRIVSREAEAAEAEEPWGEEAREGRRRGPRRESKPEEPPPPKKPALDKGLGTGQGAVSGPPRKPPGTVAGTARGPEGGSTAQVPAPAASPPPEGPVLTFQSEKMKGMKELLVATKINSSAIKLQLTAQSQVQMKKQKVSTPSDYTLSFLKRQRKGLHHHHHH
Procedure, shortened: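 Competition binding read by time-resolved FRET (FITC 520 nm over terbium 490 nm) after compound meets labeled menin 1-610-His […] for 30 min, then FITC-MBM1 (75 nM) for 15 min, ambient temperature, 0.5% DMSO. Eleven-point four-fold dilutions, usually starting at 10 μM, fitted to four-parameter curves for IC50.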

MEIS1 mRNA expression = MEIS1 mRNA expression assay (Quantigene Singleplex) in MOLM14 cells; assay type: cell-based, human; conditions: 48 hours incubation
Procedure, shortened: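 Read-out: MEIS1 transcript counts, background-subtracted and divided by RPL28, expressed as fold change over DMSO-treated cells, then dose-response modelled for IC50. MOLM14 cells (3,750/well) received graded compound for 48 h before lysis and QuantiGene hybridization at 55 °C.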

Row | SMILES | IC50 [1] | IC50 (MEIS1 mRNA expression; Homo sapiens, MOLM-14, 48 h) | IC50 (MEIS1 mRNA expression)
1 | CNC(=O)[C@H]1CC[C@@H](CN2CC[C@@H](Cc3cn(-c4ccc(F)cc4C(=O)N(C)C(C)C)c4cncc(C)c34)C2)CC1 [Compound 185] | 0.097 nM | 44 nM | 
2 | CC(=O)NC1CCC(N2CC[C@H](Cc3cn(-c4ccc(F)cc4C(=O)N(C)C(C)C)c4cncc(C)c34)C2)CC1 (stereo partly drawn) [Compound 211] | 0.032 nM |  | 113 nM
3 | CC(=O)N1CCC(C(C)N2CCC(Cc3cn(-c4ccc(F)cc4C(=O)N(C)C(C)C)c4cncc(C)c34)C2)CC1 (single isomer, unassigned) [Compound 116a] | 0.075 nM | 5 nM | 
4 | Cc1cncc2c1c(C[C@@H]1CCN(C[C@@H]3CCNC(=O)CC3)C1)cn2-c1ccc(F)cc1C(=O)N1[C@H](C)CC[C@H]1C (single isomer, unassigned) [Compound 352b] | 0.247 nM | 266 nM | 
5 | CC(=O)NC1CCC(N2CC[C@@H](Cc3cn(-c4ccc(F)cc4C(=O)N(C)C(C)C)c4cncc(C)c34)C2)CC1 (stereo partly drawn) [Compound 201] | 0.063 nM |  | 47 nM
6 | CC(=O)N1CCN(CCCC(C(C)C)N2CC[C@H](Cc3cn(-c4ccc(F)cc4C(=O)N(C)C(C)C)c4cncc(C)c34)C2)CC1 (mixture of isomers) [Compound 9] | 0.138 nM | 23 nM | 
7 | CC(=O)N1CC2CC(C1)C2N1CC[C@@H](Cc2cn(-c3ccc(F)cc3C(=O)N(C)C(C)C)c3cncc(C)c23)C1 (stereo partly drawn) [Compound 209] | 0.202 nM | > 1000 nM | 
8 | Cc1cncc2c1c(C[C@@H]1CCN(CC3CCNC(=O)CC3)C1)cn2-c1ccc(F)cc1C(=O)N1CCC[C@H]1C (single isomer, unassigned) [Compound 353a] | 0.094 nM |  | 12 nM
9 | CN=S(=O)(c1cc(F)ccc1-n1cc(CC2CCN(CC3CCOCC3)C2)c2c(C)cncc21)C(C)C (single isomer, unassigned) [Compound 77b] | 0.07 nM |  | 132 nM
10 | CCC([C@H]1C[C@@H](N2CCN(C(C)=O)CC2)C1)N1CC[C@@H](Cc2cn(-c3ccc(F)cc3C(=O)N(C)C(C)C)c3cncc(C)c23)C1 (mixture of isomers) [Compound 24] | 0.057 nM | 71 nM | 
11 | Cc1cncc2c1c(C[C@@H]1CCN(CC3CCNC(=O)CC3)C1)cn2-c1ccc(F)cc1C(=O)N(C)C(C)C (mixture of isomers) [Compound 169] | 0.061 nM | 71 nM | 
12 | Cc1cncc2c1c(C[C@@H]1CCN([C@H](C)C3CCOCC3)C1)cn2-c1ccc(F)cc1[S@](=N)(=O)C(C)C (single isomer, unassigned) [Compound 180a] | 0.143 nM | 117 nM | 
13 | CC(=O)N1CCC(CN2CC[C@@H](Cc3cn(-c4ccc(F)cc4C(=O)N4CCC[C@H]4C)c4cncc(C)c34)C2)CC1 [Compound 315] | 0.071 nM | 37 nM | 
14 | Cc1cncc2c1c(C[C@@H]1CCN(C[C@H]3CCNC(=O)CC3)C1)cn2-c1ccc(F)cc1C(=O)N1[C@H](C)CC[C@H]1C (single isomer, unassigned) [Compound 352a] | 0.102 nM | 13 nM | 
15 | Cc1cncc2c1c(C[C@@H]1CCN([C@H](CO)C3CCCOC3)C1)cn2-c1ccc(F)cc1C(=O)N(C)C(C)C (single isomer, unassigned) [Compound 198b] | 0.085 nM | 107 nM | 
16 | COCCN(C)CCCC(C(C)C)N1CC[C@@H](Cc2cn(-c3ccc(F)cc3C(=O)N(C)C(C)C)c3cncc(Cl)c23)C1 (stereo partly drawn) [Compound 3] | 0.026 nM | 10 nM | 
17 | CC(=O)N1CCC(CN2CC[C@@H](Cc3cn(-c4ccc(F)cc4C(=O)N4CCC5CC54)c4cncc(C)c34)C2)CC1 (stereo partly drawn) [Compound 311] | 0.031 nM | 18 nM | 
18 | CC(=O)N1CCC(CN2CC[C@@H](Cc3cn(-c4ccc(F)cc4C(=O)N4CCC[C@@H]4C)c4cncc(C)c34)C2)CC1 [Compound 319] | 0.293 nM | 240 nM | 

Row | SMILES | IC50 [1] | IC50 (MEIS1 mRNA expression; Homo sapiens, MOLM-14, 48 h) | IC50 (MEIS1 mRNA expression)
19 | Cc1cncc2c1c(CC1CN(CC3CCOCC3)C1)cn2-c1ccc(F)cc1C(=O)N1CCC2CC21 (stereo not drawn) [Compound 262] | 0.018 nM | 15 nM | 
20 | COCCN(C)CCCC(C(C)C)N1CCC(Cc2cn(-c3ccc(F)cc3C(=O)N(C)C(C)C)c3cncc(F)c23)C1 (stereo not drawn) [Compound 6] | 0.288 nM | 49 nM | 
21 | Cc1cncc2c1c(C[C@H]1CCN([C@H](C)C3CCOCC3)C1)cn2-c1ccc(F)cc1[S@](=N)(=O)C(C)C (single isomer, unassigned) [Compound 181a] | 0.066 nM | 111 nM | 
22 | Cc1cncc2c1c(CC1CCN(CC3CCN(C(=O)[C@@H](C)O)CC3)C1)cn2-c1ccc(F)cc1C(=O)N(C)C(C)C (single isomer, unassigned) [Compound 85] | 0.113 nM | 22 nM | 
23 | Cc1cncc2c1c(CC1CCN(CC3CCC(=O)N(C)CC3)C1)cn2-c1ccc(F)cc1C(=O)N(C)C(C)C (single isomer, unassigned) [Compound 184a] | 0.041 nM |  | 23 nM
24 | Cc1cncc2c1c(C[C@@H]1CCN(CC3CCN(C(N)=O)CC3)C1)cn2-c1ccc(F)cc1C(=O)N(C)C(C)C [Compound 207] | 0.016 nM | 29 nM | 
25 | CC(=O)N1CCC(CN2CC[C@@H](Cc3cn(-c4ccc(F)cc4C(=O)N4[C@@H](C)CC[C@@H]4C)c4cncc(C)c34)C2)CC1 [Compound 316] | 0.055 nM | 29 nM | 
26 | Cc1cncc2c1c(CC1CN(CC3CCOCC3)C1)cn2-c1ccc(F)cc1C(=O)N1CC2CC1CO2 (stereo not drawn) [Compound 264] | 0.034 nM | 25 nM | 
27 | CC(=O)NC1CCC(N2CC[C@@H](Cc3cn(-c4ccc(F)cc4C(=O)N(C)C(C)C)c4cncc(C)c34)C2)CC1 (stereo partly drawn) [Compound 200] | 0.909 nM |  | ~864 nM
28 | CC(=O)N1CCC(CN2CC[C@@H](Cc3cn(-c4ccc(F)cc4C(=O)N4CC5CC4CO5)c4cncc(C)c34)C2)CC1 (stereo partly drawn) [Compound 312] | 0.058 nM | 55 nM | 
29 | COC(=O)[C@H]1CC[C@@H](CN2CC[C@@H](Cc3cn(-c4ccc(F)cc4C(=O)N(C)C(C)C)c4cncc(C)c34)C2)CC1 [Compound 153] | 0.077 nM | 77 nM | 
30 | Cc1cncc2c1c(C[C@@H]1CCN(CC3CCNC(=O)C3)C1)cn2-c1ccc(F)cc1C(=O)N(C)C(C)C (mixture of isomers) [Compound 212] | 0.115 nM | 322 nM | 
31 | Cc1cncc2c1c(C[C@@H]1CCN(CC3CCOCC3)C1)cn2-c1ccc(F)cc1S(=N)(=O)C(C)C (mixture of isomers) [Compound 78] | 0.299 nM | 327 nM | 
32 | CC(=O)N1CC2CC(C1)C2N1CC[C@H](Cc2cn(-c3ccc(F)cc3C(=O)N(C)C(C)C)c3cncc(C)c23)C1 (stereo partly drawn) [Compound 208] | 0.147 nM | 281 nM | 
33 | CC(=O)N1CCC([C@H](CO)N2CC[C@@H](Cc3cn(-c4ccc(F)cc4C(=O)N(C)C(C)C)c4cncc(C)c34)C2)CC1 (single isomer, unassigned) [Compound 206a] | 0.045 nM | 24 nM | 
34 | Cc1cncc2c1c(C[C@@H]1CCN(CC3CCN(C(=O)C(C)C)CC3)C1)cn2-c1ccc(F)cc1C(=O)N1CCC[C@H]1CO [Compound 328] | 0.101 nM | ~154 nM | 
35 | Cc1cncc2c1c(CC1CN(CC3CCOCC3)C1)cn2-c1ccc(F)cc1C(=O)N1CCCC1CO (stereo not drawn) [Compound 268] | 0.149 nM | 37 nM | 
36 | COC[C@H](C1CCCCO1)N1CC[C@@H](Cc2cn(-c3ccc(F)cc3C(=O)N(C)C(C)C)c3cncc(C)c23)C1 (single isomer, unassigned) [Compound 165b] | 0.07 nM | 38 nM | 

Source: patent US20230250096A1, “SUBSTITUTED PHENYL-1H-PYRROLO[2,3-c] PYRIDINE DERIVATIVES” (Janssen Pharmaceutica NV, priority 2021, published 2023)
